The test in a line: Napkin sprayed with pentane-1,5-diol solution, dried, used to remove urine; smell assessed. More on the design: species or system human being. The note with it: active solutions containing 10% (v/v) and 30% (v/v) sprayed onto disposable napkin, dried at room temperature; control water alone. The text has this: Active solutions containing 10% (v/v) and 30% (v/v) pentane-1,5-diol were sprayed onto a disposable napkin until the complete area of the napkin was moistened. The napkin was left at room temperature until the napkin was dry. The napkin was then used to remove urine from a human being. […] As a control was water used alone. The same amount of water and the active solution were used.

For `OCCCCCO` [pentane-1,5-diol], the “smell of urine from the napkin” value was “no smell of urine”.

The record behind these values is patent US20090232761A1, “Use of a Composition Comprising Pentane-1, 5-Diol as Deodorant” (priority 2005, published 2009).
